Assays:
[1] = biological target: T1, CYP2D6 (Homo sapiens, UniProt P10635); conditions: cited from earlier work
[2] = biological target: T1, CYP2D6; test: biochemical
Excerpt: The composition of the mobile phase was 40% acetonitrile: 60% acetic acid (0.1%) (vol/vol).

[3] = test system: CYP3A; test: Inhibition of CYP3A-mediated midazolam 1′-hydroxylation in human liver microsomes; assay type: in vitro ADME; conditions: for Inhibitory potency ([inhibitor]/K i), CYP3A (1-hydroxylation): relative to the mean of reported therapeutic concentrations
Method: (§1) The mass spectrometer was run in the positive ion mode. Nitrogen as the drying gas was supplied at a flow of 10 L/minutes and at a temperature of 350°C.

[4] = reported therapeutic concentrations; ref Kirchherr and Kühn-Velten [18]; cited from earlier work
[5] = test system: CYP3A; test: Inhibition of CYP3A-mediated midazolam 4′-hydroxylation in human liver microsomes; assay type: in vitro ADME; conditions: abaperidone up to 20 μM
Method: as §1

[6] = biological target: CYP2C9 (Homo sapiens, UniProt P11712); test: Inhibition of CYP2C9-mediated diclofenac 4′-hydroxylation in human liver microsomes; conditions: 15 μM diclofenac, antipsychotics 0.05 to 50 μM, abaperidone up to 20 μM
Chain of CYP2C9 (P11712 whole entry): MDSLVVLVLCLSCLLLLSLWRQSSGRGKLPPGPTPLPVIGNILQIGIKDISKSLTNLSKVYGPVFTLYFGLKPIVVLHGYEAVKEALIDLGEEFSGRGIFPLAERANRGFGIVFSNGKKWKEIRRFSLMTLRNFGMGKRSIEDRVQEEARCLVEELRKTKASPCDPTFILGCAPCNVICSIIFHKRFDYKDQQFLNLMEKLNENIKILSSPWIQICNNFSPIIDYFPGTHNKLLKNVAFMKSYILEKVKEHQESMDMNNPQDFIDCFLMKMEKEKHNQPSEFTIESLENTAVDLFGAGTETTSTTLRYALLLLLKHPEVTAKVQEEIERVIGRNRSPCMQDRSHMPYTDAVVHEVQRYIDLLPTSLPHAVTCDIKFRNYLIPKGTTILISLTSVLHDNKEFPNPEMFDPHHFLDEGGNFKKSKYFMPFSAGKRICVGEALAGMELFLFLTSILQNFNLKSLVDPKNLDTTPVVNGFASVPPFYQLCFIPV
Method: Inhibition studies on four different CYP isoform-specific substrates were carried out in human liver microsomes (Gentest Corporation, Woburn, MA). Assessed reactions were phenacetin O-deethylation for CYP1A2, (+/−)-bufuralol 1′-hydroxylation for CYP2D6, diclofenac 4′-hydroxylation for CYP2C9, and midazolam 1′- and 4′-hydroxylation for CYP3A. The different antipsychotics were dissolved in methanol and serially diluted with 100 mM tris buffer (pH = 7.5) to obtain final concentrations ranging from 0.05 to 50 μM. Abaperidone was an exception and was dissolved in hot water up to a maximum concentration of 20 μM.
Reactions were started by adding microsomal protein and the mix was then vortexed and incubated at 37°C for 30 min. The process was stopped by the addition of acetonitrile and incubation on ice during 10 minutes. Samples were then centrifuged at 10,000 g for 3 minutes, and the supernatant was taken for subsequent HPLC analysis. Control inhibition studies were carried out with prototypic inhibitors in increasing concentrations up to 20 μM, namely, furafylline (CYP1A2), quinidine (CYP2D6), sulphaphenazole (CYP2C9), and ketoconazole (CYP3A).
The effect of antipsychotics on the rate of CYP-catalyzed probe substrates was expressed as a percentage of the control activity with no antipsychotic present.

T1 sequence (P10635 whole entry): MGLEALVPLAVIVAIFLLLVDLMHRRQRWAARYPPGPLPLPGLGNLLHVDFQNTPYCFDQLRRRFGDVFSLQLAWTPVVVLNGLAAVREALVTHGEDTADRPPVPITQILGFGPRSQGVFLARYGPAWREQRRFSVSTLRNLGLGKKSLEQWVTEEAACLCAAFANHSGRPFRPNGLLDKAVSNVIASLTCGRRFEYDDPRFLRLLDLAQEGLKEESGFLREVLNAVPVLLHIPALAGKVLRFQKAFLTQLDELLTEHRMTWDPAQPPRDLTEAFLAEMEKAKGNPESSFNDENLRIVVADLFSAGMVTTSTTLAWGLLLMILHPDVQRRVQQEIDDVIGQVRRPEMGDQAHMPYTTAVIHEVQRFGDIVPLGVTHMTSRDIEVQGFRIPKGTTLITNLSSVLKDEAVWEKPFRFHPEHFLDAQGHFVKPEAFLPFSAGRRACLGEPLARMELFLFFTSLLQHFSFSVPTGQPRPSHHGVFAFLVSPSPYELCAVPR

O=C(CCCN1CCC(O)(c2ccc(Cl)cc2)CC1)c1ccc(F)cc1 [Haloperidol]
Inhibition of CYP2D6 (in words, literature) [1]: inhibitory effect

COc1ccc2c(c1)N(C[C@H](C)CN(C)C)c1ccccc1S2 [Levomepromazine]
IC50 [2]: 25.5 µM | Ki [2]: 12.8 µM | Ki at 30 min ([3]; human, human liver microsomes, pH 7.5, probe midazolam (1′-hydroxylation), 10 μM, estimate obtained from IC50 as described in [17] (IC50-to-Ki tool), read-out: K i, CYP3A (1-hydroxylation)): 15 µM | inhibition at 30 min ([3]; pH 7.5, probe midazolam (1′-hydroxylation), 10 μM, human liver microsomes, inhibitor 0.05 to 50 μM, read-out: I max (maximum inhibition), CYP3A (1-hydroxylation)): 58.2% | IC50 at 30 min ([3]; pH 7.5, probe midazolam (1′-hydroxylation), human liver microsomes, 10 μM midazolam, 30 min 37°C): 30 µM | Inhibitory potency ([inhibitor]/K i), CYP3A (1-hydroxylation) [3]: 0.0083 | Therapeutic range [4]: 0.05 to 0.2 µM

Cc1cc2c(s1)Nc1ccccc1N=C2N1CCN(C)CC1 [Olanzapine]
Therapeutic range [4]: 0.06 to 0.25 µM

Cc1nc2n(c(=O)c1CCN1CCC(c3noc4cc(F)ccc34)CC1)CCCC2 [Risperidone]
Inhibitory potency ([inhibitor]/K i), CYP3A (1-hydroxylation) [3]: 0.0092

O=c1c(CO)coc2cc(OCCCN3CCC(c4noc5cc(F)ccc45)CC3)ccc12 [abaperidone, 7-[3-[4-(6-fluoro-1,2-benzisoxazol-3-yl)-piperidin-1-yl]propoxy]-3-(hydroxymethyl)chromen-4-one]
Inhibition of CYP3A midazolam 4′-hydroxylation (in words) [5]: did not cause a significant inhibition | Inhibition of CYP3A midazolam 1′-hydroxylation (in words) ([3]; human liver microsomes, abaperidone up to 20 μM): did not cause a significant inhibition | Inhibition of CYP2C9 (in words) [6]: did not cause a significant inhibition

CN1CCN(C2=Nc3cc(Cl)ccc3Nc3ccccc32)CC1 [clozapine]
Inhibition of CYP2D6 (in words, literature) [1]: inhibitory effect

From paper PMC3586484, “Comparative Cytochrome P450 In Vitro Inhibition by Atypical Antipsychotic Drugs” (ISRN Pharmacology, 2013)
